Data as given in ChEMBL document CHEMBL1154377, “Evaluation of basic, heterocyclic ring systems as templates for use as potassium competitive acid blockers (pCABs)” (Bioorg Med Chem Lett, 2009).
Blank lines part the entries; values can stand above or below the molecule they belong to.

What was measured:
[1] = Intrinsic clearance in rat liver microsomes; assay type: ADME, Microsome
[2] = Intrinsic clearance in dog liver microsomes; assay type: ADME, Canis lupus familiaris, Microsome
[3] = Intrinsic clearance in human liver microsomes; assay type: ADME, Microsome
[4] = Inhibition of H+/K+ ATPase in parietal cells assessed as inhibition of histamine-stimulated [14C]aminopyrine accumulation
[5] = Inhibition of H+/K+ ATPase at pH 7.4
[6] = target: T1, Cytochrome P450 1A2 (Homo sapiens, UniProt P05177); test: Inhibition of CYP1A2; assay type: ADME
T1 sequence (P05177 whole entry): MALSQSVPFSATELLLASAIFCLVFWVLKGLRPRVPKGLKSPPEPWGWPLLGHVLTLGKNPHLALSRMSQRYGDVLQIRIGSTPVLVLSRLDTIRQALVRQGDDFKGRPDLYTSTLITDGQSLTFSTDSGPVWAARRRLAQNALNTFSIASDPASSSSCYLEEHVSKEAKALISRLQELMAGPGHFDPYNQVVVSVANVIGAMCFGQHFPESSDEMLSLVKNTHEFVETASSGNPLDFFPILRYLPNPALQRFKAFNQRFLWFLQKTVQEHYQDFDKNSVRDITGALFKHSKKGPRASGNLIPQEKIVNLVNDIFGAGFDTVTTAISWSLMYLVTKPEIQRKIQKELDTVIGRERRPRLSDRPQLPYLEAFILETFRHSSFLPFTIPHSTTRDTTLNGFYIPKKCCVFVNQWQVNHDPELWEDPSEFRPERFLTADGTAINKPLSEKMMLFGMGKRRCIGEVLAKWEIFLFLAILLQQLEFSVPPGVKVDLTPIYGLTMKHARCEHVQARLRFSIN

[7] = target: Cytochrome P450 2C19 (Homo sapiens, UniProt P33261); test: Inhibition of CYP2C19; assay type: ADME
[8] = target: Cytochrome P450 2D6 (Homo sapiens, UniProt P10635); test: Inhibition of CYP2D6; assay type: ADME
[9] = target: T2, Cytochrome P450 3A4 (Homo sapiens, UniProt P08684); test: Inhibition of CYP3A4 using diethoxyfluorescein substrate; assay type: ADME
[10] = target: T2, Cytochrome P450 3A4; test: Inhibition of CYP3A4 using 7-benzyloxyquinoline substrate; assay type: ADME
[11] = Dissociation constant, pKa of the compound; assay type: physicochemical
[12] = Chromatographic hydrophobicity index at pH 7.4 by fast gradient HPLC; assay type: physicochemical; settings: buffer
[13] = target: Cytochrome P450 2C9 (Homo sapiens, UniProt P11712)
Chain of Cytochrome P450 2C9 (P11712 whole entry): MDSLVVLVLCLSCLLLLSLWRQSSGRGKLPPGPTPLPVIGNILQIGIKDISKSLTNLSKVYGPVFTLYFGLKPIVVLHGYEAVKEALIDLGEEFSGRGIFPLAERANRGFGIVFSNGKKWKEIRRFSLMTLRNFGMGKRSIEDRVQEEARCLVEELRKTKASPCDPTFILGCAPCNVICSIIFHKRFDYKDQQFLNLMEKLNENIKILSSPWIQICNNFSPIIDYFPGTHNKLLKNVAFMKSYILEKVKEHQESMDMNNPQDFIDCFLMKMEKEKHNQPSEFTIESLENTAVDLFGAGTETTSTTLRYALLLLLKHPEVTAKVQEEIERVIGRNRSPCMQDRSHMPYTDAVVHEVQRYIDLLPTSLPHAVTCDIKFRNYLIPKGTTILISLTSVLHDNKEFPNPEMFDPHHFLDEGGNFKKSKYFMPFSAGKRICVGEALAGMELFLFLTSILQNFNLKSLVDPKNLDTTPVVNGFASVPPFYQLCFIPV

Chain of Cytochrome P450 2C19 (P33261 whole entry): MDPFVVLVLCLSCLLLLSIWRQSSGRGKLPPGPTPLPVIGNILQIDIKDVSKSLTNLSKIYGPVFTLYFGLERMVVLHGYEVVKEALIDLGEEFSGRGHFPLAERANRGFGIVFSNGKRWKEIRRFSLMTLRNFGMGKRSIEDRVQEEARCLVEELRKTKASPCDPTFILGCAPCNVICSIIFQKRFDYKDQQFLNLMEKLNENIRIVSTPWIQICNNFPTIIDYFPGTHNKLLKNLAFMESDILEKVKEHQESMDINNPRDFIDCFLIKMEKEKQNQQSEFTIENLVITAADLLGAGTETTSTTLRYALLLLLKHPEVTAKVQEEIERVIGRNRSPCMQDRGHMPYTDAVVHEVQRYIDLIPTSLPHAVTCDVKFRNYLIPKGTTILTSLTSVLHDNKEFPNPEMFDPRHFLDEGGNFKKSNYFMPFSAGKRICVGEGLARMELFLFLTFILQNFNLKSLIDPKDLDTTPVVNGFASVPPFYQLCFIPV
Chain of Cytochrome P450 2D6 (P10635 whole entry): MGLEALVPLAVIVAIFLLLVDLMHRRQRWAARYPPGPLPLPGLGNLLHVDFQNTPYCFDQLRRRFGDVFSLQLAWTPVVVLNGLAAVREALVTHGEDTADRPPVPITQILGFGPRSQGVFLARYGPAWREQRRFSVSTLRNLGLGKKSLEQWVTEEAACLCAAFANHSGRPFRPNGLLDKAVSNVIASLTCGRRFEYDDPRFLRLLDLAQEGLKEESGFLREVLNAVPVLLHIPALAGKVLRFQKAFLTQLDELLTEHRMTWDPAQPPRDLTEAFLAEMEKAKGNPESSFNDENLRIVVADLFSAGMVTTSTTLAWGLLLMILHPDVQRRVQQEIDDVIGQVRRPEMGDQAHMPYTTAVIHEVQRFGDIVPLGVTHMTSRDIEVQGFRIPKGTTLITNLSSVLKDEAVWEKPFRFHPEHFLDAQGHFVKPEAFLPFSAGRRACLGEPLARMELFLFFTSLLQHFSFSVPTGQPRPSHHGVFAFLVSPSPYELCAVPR
T2 sequence (P08684 whole entry): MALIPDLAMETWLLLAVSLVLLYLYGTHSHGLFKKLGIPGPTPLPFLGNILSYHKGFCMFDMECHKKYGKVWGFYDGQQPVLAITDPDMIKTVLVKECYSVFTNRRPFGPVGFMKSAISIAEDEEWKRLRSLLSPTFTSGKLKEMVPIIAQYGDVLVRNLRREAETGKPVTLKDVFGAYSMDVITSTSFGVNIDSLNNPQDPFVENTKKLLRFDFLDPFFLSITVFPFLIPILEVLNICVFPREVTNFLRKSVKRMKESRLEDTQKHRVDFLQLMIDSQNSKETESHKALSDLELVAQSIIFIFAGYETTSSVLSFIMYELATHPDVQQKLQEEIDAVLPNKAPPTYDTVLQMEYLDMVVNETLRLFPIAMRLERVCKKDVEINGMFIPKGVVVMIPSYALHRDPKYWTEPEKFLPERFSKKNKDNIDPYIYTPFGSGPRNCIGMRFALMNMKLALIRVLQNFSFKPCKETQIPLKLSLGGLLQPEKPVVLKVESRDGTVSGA

SMILES: CCc1cccc(C)c1CNc1cc(C(N)=O)cn2c(C)c(C)nc12
CLint scaled [1]: 0.84 L/h/kg
CLint scaled [2]: 0.18 L/h/kg
CLint scaled [3]: 0.39 L/h/kg
IC50 [4]: 0.0234 µM

SMILES: Cc1nc2c(OCc3ccccc3)cccn2c1CC#N
pIC50 [5]: 7.4
IC50 [6]: 2 µM
IC50 [7]: > 100 µM
IC50 [8]: 82 µM
IC50 [9]: 9 µM
IC50 [10]: 12 µM
CLint scaled [1]: 0.51 L/h/kg
CLint scaled [3]: 0.48 L/h/kg
pKa ([11]; read-out: pKa): 7.28
chromatographic logD [12]: 4.2
IC50 [4]: 0.0166 µM

SMILES: Cc1cccc(C)c1CNc1nc(-c2cccc(=O)[nH]2)cc2c(C)c(C)[nH]c12
pIC50 [5]: 5.1
IC50 [6]: > 100 µM
IC50 [7]: 62 µM
IC50 [8]: 60 µM
IC50 [9]: 1.3 µM
IC50 [10]: 2.2 µM
pKa [11]: Insoluble
chromatographic logD [12]: 4.12
IC50 [13]: 2.3 µM
IC50 [4]: 0.316 µM

SMILES: Cc1cccc(C)c1CNc1nc(-c2ccccc2)cc2c(C)c(C)[nH]c12
pIC50 [5]: 6.3
IC50 [6]: 3.7 µM
IC50 [7]: 0.3 µM
IC50 [8]: 0.6 µM
IC50 [9]: 7.7 µM
IC50 [10]: 6.6 µM
CLint scaled [1]: 0.234 L/h/kg
CLint scaled [3]: < 0.03 L/h/kg
pKa [11]: Insoluble
chromatographic logD [12]: 5.31
IC50 [13]: 6.7 µM
IC50 [4]: 0.316 µM

SMILES: Cc1cccc(C)c1CNc1nc(-n2ccccc2=O)cc2c(C)c(C)n(CCO)c12
pIC50 [5]: 6.8
IC50 [6]: > 100 µM
IC50 [7]: 40 µM
IC50 [8]: 45.5 µM
IC50 [9]: 5.6 µM
CLint scaled [1]: 1.31 L/h/kg
CLint scaled [3]: 0.726 L/h/kg
pKa ([11]; read-out: pKa): 4.5
chromatographic logD [12]: 3.12
IC50 [13]: 11.4 µM
IC50 [4]: 0.251 µM

SMILES: Cc1cccc(C)c1CNc1nc(N2CCOCC2=O)cc2c(C)c(C)[nH]c12
pIC50 [5]: 5.9
IC50 [6]: 35 µM
IC50 [7]: 66 µM
IC50 [8]: 25 µM
IC50 [9]: 22 µM
IC50 [10]: 22 µM
CLint scaled [1]: 0.258 L/h/kg
CLint scaled [3]: 0.096 L/h/kg
pKa [11]: Insoluble
chromatographic logD [12]: 2.83
IC50 [13]: 61 µM
IC50 [4]: 0.2 µM

SMILES: Cc1cccc(C)c1CNc1cc(C(=O)NCCO)cn2c(C)c(C)nc12 [LINAPRAZAN]
CLint scaled [1]: 0.24 L/h/kg
CLint scaled [2]: 0.054 L/h/kg
CLint scaled [3]: 0.078 L/h/kg
pKa ([11]; read-out: pKa): 6.27
chromatographic logD [12]: 2.14
IC50 [4]: 0.0562 µM

SMILES: Cc1cccc(C)c1CNc1nc(N2CCNC2=O)cc2c(C)c(C)[nH]c12
pIC50 [5]: 6.5
IC50 [6]: 22 µM
IC50 [7]: 8.2 µM
IC50 [8]: 0.7 µM
IC50 [9]: 1.6 µM
IC50 [10]: 1.6 µM
CLint scaled [1]: 0.36 L/h/kg
CLint scaled [3]: 0.078 L/h/kg
chromatographic logD [12]: 2.54
IC50 [13]: 2.7 µM
IC50 [4]: 0.158 µM

SMILES: Cc1cccc(C)c1CNc1ncnc2c(C)c(C)[nH]c12
pIC50 [5]: 5.9
IC50 [6]: > 100 µM
IC50 [7]: > 10 µM
IC50 [8]: 0.3 µM
IC50 [9]: 8.8 µM
IC50 [10]: > 100 µM
CLint scaled [1]: 0.54 L/h/kg
CLint scaled [3]: 0.168 L/h/kg
chromatographic logD [12]: 2.53
IC50 [13]: > 100 µM
IC50 [4]: 0.0631 µM

SMILES: Cc1cccc(C)c1COc1cccn2c(C)c(C)nc12
pIC50 [5]: 7.6
IC50 [6]: 0.7 µM
IC50 [7]: 6.2 µM
IC50 [8]: 2.3 µM
IC50 [9]: 5.5 µM
IC50 [10]: 18 µM
pKa ([11]; read-out: pKa): 7.41
chromatographic logD [12]: 3.38
IC50 [13]: 16 µM

SMILES: Cc1cccc(C)c1CNc1nc(N2CCOCC2=O)cc2c(C)c(C)n(CCO)c12
pIC50 [5]: 6.6
IC50 [6]: > 100 µM
IC50 [7]: > 100 µM
IC50 [8]: 36 µM
IC50 [9]: 6 µM
IC50 [10]: 11 µM
CLint scaled [1]: 0.39 L/h/kg
CLint scaled [3]: 0.414 L/h/kg
pKa ([11]; read-out: pKa): 5.4
chromatographic logD [12]: 2.93
IC50 [13]: 13 µM
IC50 [4]: 0.0794 µM

SMILES: CCn1c(C)c(C)c2cc(-n3ccccc3=O)nc(NCc3c(C)cccc3C)c21
pIC50 [5]: 7.4
IC50 [6]: 65 µM
IC50 [7]: 6.5 µM
IC50 [8]: 18 µM
IC50 [9]: 2.9 µM
CLint scaled [1]: 2.46 L/h/kg
CLint scaled [3]: 1.32 L/h/kg
pKa ([11]; read-out: pKa): 4
chromatographic logD [12]: 3.9
IC50 [13]: 0.7 µM
IC50 [4]: 0.2 µM

SMILES: C=CCn1c(C)c(C)c2cc(-n3ccccc3=O)nc(NCc3c(C)cccc3C)c21
pIC50 [5]: 7.5
IC50 [6]: 62 µM
IC50 [7]: 6 µM
IC50 [8]: 26 µM
IC50 [9]: 2.4 µM
CLint scaled [1]: 1.2 L/h/kg
CLint scaled [3]: 0.78 L/h/kg
pKa ([11]; read-out: pKa): 4
chromatographic logD [12]: 4.06
IC50 [13]: 0.5 µM

SMILES: Cc1cccc(C)c1CNc1nc(N2CCCC2=O)cc2c(C)c(C)[nH]c12
pIC50 [5]: 7.4
IC50 [6]: 26 µM
IC50 [7]: 6.4 µM
IC50 [8]: 1.9 µM
IC50 [9]: 1 µM
IC50 [10]: 1.8 µM
pKa ([11]; read-out: pKa): 6.32
chromatographic logD [12]: 3.77
IC50 [13]: 1.4 µM
IC50 [4]: 0.158 µM

SMILES: Cc1cccc(C)c1CNc1nc(-n2ccccc2=O)cc2c(C)c(C)[nH]c12
pIC50 [5]: 7.4
IC50 [6]: 29 µM
IC50 [7]: 20 µM
IC50 [8]: > 33 µM
IC50 [9]: 3 µM
IC50 [10]: 90 µM
CLint scaled [1]: 0.174 L/h/kg
CLint scaled [3]: 0.162 L/h/kg
pKa ([11]; read-out: pKa): 4.71
chromatographic logD [12]: 3.18
IC50 [13]: 3.3 µM

The next lines start with the values.

pIC50 [5]: 7.6
IC50 [6]: 6.1 µM
IC50 [7]: 4.7 µM
IC50 [8]: < 0.1 µM
IC50 [9]: 4.7 µM
IC50 [10]: 1.6 µM
CLint scaled [1]: 3 L/h/kg
CLint scaled [3]: 0.66 L/h/kg
pKa ([11]; read-out: pKa): 7.92
chromatographic logD [12]: 3.54
IC50 [13]: 14 µM
IC50 [4]: 0.141 µM
SMILES: Cc1cccc(C)c1CNc1nccn2c(C)c(C)cc12

pIC50 [5]: 4.5
pKa ([11]; read-out: pKa): 5.81
chromatographic logD [12]: 2.27
SMILES: Cc1cccc(C)c1CNc1ccnc2c1nc(C)n2C

pIC50 [5]: 7.1
chromatographic logD [12]: 3.4
IC50 [4]: 0.282 µM
SMILES: Cc1cccc(C)c1CNc1nccn2c(C)c(C)nc12

pIC50 [5]: 6.8
pKa ([11]; read-out: pKa): 8.63
SMILES: Cc1cccc(C)c1CNc1nccc2cc[nH]c12

pIC50 [5]: < 4
SMILES: Cc1cccc(C)c1CNc1ncnc2c(C)csc12

pIC50 [5]: 6.1
chromatographic logD [12]: 3.53
SMILES: Cc1cccc(C)c1CNc1ccnn2c(C)c(C)nc12

pIC50 [5]: 5.5
IC50 [6]: 2.1 µM
IC50 [7]: 9.2 µM
IC50 [8]: 35 µM
IC50 [9]: 13 µM
IC50 [10]: 9 µM
CLint scaled [1]: 2.82 L/h/kg
CLint scaled [3]: 0.48 L/h/kg
IC50 [13]: 8.8 µM
IC50 [4]: 0.0447 µM
SMILES: Cc1cccc(C)c1CNc1cccc2c1nc(C)n2C

pIC50 [5]: < 4
SMILES: Cc1cc2ncnc(NCc3c(C)cccc3C)c2s1

pIC50 [5]: 4.1
pKa ([11]; read-out: pKa): 6.03
SMILES: Cc1cccc(C)c1CNc1cccn2c(C)ncc12
